Test system: 997537-175-T-J1-PDC complex spheroid viability
Experiment: Anticancer human tumor 997537-175-T-J1-PDC patient-derived colon adenocarcinoma cell line growth inhibition [GQUAD]
Details: for IC50: curve of first compound; for viability, T/C: stronger effect = lower value
Summary of the method: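 Multi-cell-type spheroids of tumor cells with HUVEC and mesenchymal stem cells, treated with drug combinations. Concentrations descend in half-log steps from near clinical Cmax, or from 10 microM where Cmax is unknown; viability read-out.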

[1] = second compound 0.0316 µM, first compound 0.0316 µM
[2] = second compound 0.0316 µM, first compound 0.316 µM
[3] = second compound 0.1 µM, first compound 0.0316 µM
[4] = second compound 0.1 µM, first compound 0.316 µM
[5] = second compound 0.316 µM, first compound 0.0316 µM
[6] = second compound 0.316 µM, first compound 0.316 µM
[7] = second compound 1 µM, first compound 0.0316 µM
[8] = second compound 1 µM, first compound 0.316 µM
[9] = second compound 3.16 µM, first compound 0.0316 µM
[10] = second compound 3.16 µM, first compound 0.316 µM
[11] = second compound 10 µM, first compound 0.0316 µM
[12] = second compound 10 µM, first compound 0.316 µM
[13] = second compound 0.0316 µM, first compound 0.1 µM
[14] = second compound 0.0316 µM, first compound 1 µM
[15] = second compound 0.0316 µM, first compound 3.16 µM
[16] = second compound 0.0316 µM, first compound 10 µM
[17] = second compound 0.1 µM, first compound 0.1 µM
[18] = second compound 0.1 µM, first compound 1 µM
[19] = second compound 0.1 µM, first compound 3.16 µM
[20] = second compound 0.1 µM, first compound 10 µM
[21] = second compound 0.316 µM, first compound 0.1 µM
[22] = second compound 0.316 µM, first compound 1 µM
[23] = second compound 0.316 µM, first compound 3.16 µM
[24] = second compound 0.316 µM, first compound 10 µM
[25] = second compound 1 µM, first compound 0.1 µM
[26] = second compound 1 µM, first compound 1 µM
[27] = second compound 1 µM, first compound 3.16 µM
[28] = second compound 1 µM, first compound 10 µM
[29] = second compound 3.16 µM, first compound 0.1 µM
[30] = second compound 3.16 µM, first compound 1 µM
[31] = second compound 3.16 µM, first compound 3.16 µM
[32] = second compound 3.16 µM, first compound 10 µM
[33] = second compound 10 µM, first compound 0.1 µM
[34] = second compound 10 µM, first compound 1 µM
[35] = second compound 10 µM, first compound 3.16 µM
[36] = second compound 10 µM, first compound 10 µM
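Also: spheroids exposed to the agents for 7 days.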
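For viability, T/C in this document: 100% = DMSO vehicle control viability.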

In the case of `Cc1[nH]c2ccccc2c1CCNCc1ccc(/C=C/C(=O)NO)cc1` + Cc1[nH]c2ccc(F)cc2c1-c1nc2c3cccnc3c3ncccc3c2[nH]1, the IC50 (second compound 0.0316 µM) is reported as > 0.316 µM, the IC50 (second compound 0.1 µM) is reported as > 0.316 µM and the IC50 (second compound 0.316 µM) is reported as > 0.316 µM. The IC50 (second compound 1 µM) was > 0.316 µM, the IC50 (second compound 3.16 µM) was > 0.316 µM and the IC50 (second compound 10 µM) was > 0.316 µM. For the same compound, the viability, T/C (second compound 0.0316 µM, first compound 0.000999 µM) was 100%, the viability, T/C (second compound 0.0316 µM, first compound 0.00316 µM) was 103% and the viability, T/C (second compound 0.0316 µM, first compound 0.00999 µM) was 100%. The viability, T/C [1] was 106%, the viability, T/C (second compound 0.0316 µM, first compound 0.0999 µM) was 88.8% and the viability, T/C [2] was 93.2%. For the same compound, the viability, T/C (second compound 0.1 µM, first compound 0.000999 µM) was 89.3%, the viability, T/C (second compound 0.1 µM, first compound 0.00316 µM) was 108% and the viability, T/C (second compound 0.1 µM, first compound 0.00999 µM) was 92.8%. It also gave a viability, T/C [3] of 104%, a viability, T/C (second compound 0.1 µM, first compound 0.0999 µM) of 93.4% and a viability, T/C [4] of 95.5%. It also gave a viability, T/C (second compound 0.316 µM, first compound 0.000999 µM) of 92.1%, a viability, T/C (second compound 0.316 µM, first compound 0.00316 µM) of 111% and a viability, T/C (second compound 0.316 µM, first compound 0.00999 µM) of 92.4%. The viability, T/C [5] was 91%, the viability, T/C (second compound 0.316 µM, first compound 0.0999 µM) was 105% and the viability, T/C [6] was 97.1%. It also gave a viability, T/C (second compound 1 µM, first compound 0.000999 µM) of 98.4%, a viability, T/C (second compound 1 µM, first compound 0.00316 µM) of 95.1% and a viability, T/C (second compound 1 µM, first compound 0.00999 µM) of 101%. For the same compound, the viability, T/C [7] was 90.6%, the viability, T/C (second compound 1 µM, first compound 0.0999 µM) was 90.5% and the viability, T/C [8] was 84.8%. It also gave a viability, T/C (second compound 3.16 µM, first compound 0.000999 µM) of 93.2%, a viability, T/C (second compound 3.16 µM, first compound 0.00316 µM) of 84% and a viability, T/C (second compound 3.16 µM, first compound 0.00999 µM) of 82.1%. It also gave a viability, T/C [9] of 96.3%, a viability, T/C (second compound 3.16 µM, first compound 0.0999 µM) of 77.6% and a viability, T/C [10] of 80.7%. For the same compound, the viability, T/C (second compound 10 µM, first compound 0.000999 µM) was 83.2%, the viability, T/C (second compound 10 µM, first compound 0.00316 µM) was 88.7% and the viability, T/C (second compound 10 µM, first compound 0.00999 µM) was 73.2%. The viability, T/C [11] was 78.6%, the viability, T/C (second compound 10 µM, first compound 0.0999 µM) was 84.6% and the viability, T/C [12] was 69.5%.

For `Nc1ccn(C2OC(CO)C(O)C2(F)F)c(=O)n1` (stereo not drawn) + Cc1cnc(CNC(=O)c2c(=O)c3ccc(N4CCCN(C)CC4)nc3n3c2sc2ccccc23)cn1, the IC50 (second compound 0.0316 µM) was > 10 µM, the IC50 (second compound 0.1 µM) was > 10 µM and the IC50 (second compound 0.316 µM) was > 10 µM. The IC50 (second compound 1 µM) was > 10 µM, the IC50 (second compound 3.16 µM) was > 10 µM and the IC50 (second compound 10 µM) was > 10 µM. For the same compound, the viability, T/C [1] was 90.3%, the viability, T/C [13] was 99.5% and the viability, T/C [2] was 87.3%. For the same compound, the viability, T/C [14] was 66.6%, the viability, T/C [15] was 66.5% and the viability, T/C [16] was 56.4%. For the same compound, the viability, T/C [3] was 99.4%, the viability, T/C [17] was 84.5% and the viability, T/C [4] was 94.7%. For the same compound, the viability, T/C [18] was 56.4%, the viability, T/C [19] was 89.4% and the viability, T/C [20] was 83.8%. The viability, T/C [5] was 93.1%, the viability, T/C [21] was 108% and the viability, T/C [6] was 69.4%. The viability, T/C [22] was 76.6%, the viability, T/C [23] was 94.6% and the viability, T/C [24] was 92.9%. It also gave a viability, T/C [7] of 89.8%, a viability, T/C [25] of 103% and a viability, T/C [8] of 102%. For the same compound, the viability, T/C [26] was 68.3%, the viability, T/C [27] was 104% and the viability, T/C [28] was 77.6%. The viability, T/C [9] was 68.8%, the viability, T/C [29] was 96.6% and the viability, T/C [10] was 106%. It also gave a viability, T/C [30] of 101%, a viability, T/C [31] of 85.6% and a viability, T/C [32] of 89.3%. The viability, T/C [11] was 103%, the viability, T/C [33] was 85.9% and the viability, T/C [12] was 113%. For the same compound, the viability, T/C [34] was 72.9%, the viability, T/C [35] was 91% and the viability, T/C [36] was 73.7%.

`CC(=O)O[C@H]1C(=O)[C@@]2(C)[C@H]([C@H](OC(=O)c3ccccc3)[C@]3(O)C[C@H](OC(=O)[C@H](O)[C@@H](NC(=O)c4ccccc4)c4ccccc4)C(C)=C1C3(C)C)[C@]1(OC(C)=O)CO[C@@H]1C[C@@H]2O` + Cc1cnc(CNC(=O)c2c(=O)c3ccc(N4CCCN(C)CC4)nc3n3c2sc2ccccc23)cn1 gave an IC50 (second compound 0.0316 µM) of 0.0514 µM, an IC50 (second compound 0.1 µM) of 0.0957 µM and an IC50 (second compound 0.316 µM) of 0.165 µM. The IC50 (second compound 1 µM) was > 10 µM, the IC50 (second compound 3.16 µM) was 5.21 µM and the IC50 (second compound 10 µM) was > 10 µM. It also gave a viability, T/C [1] of 63.1%, a viability, T/C [13] of 32.2% and a viability, T/C [2] of 25.2%. It also gave a viability, T/C [14] of 32.1%, a viability, T/C [15] of 26.9% and a viability, T/C [16] of 21.2%. It also gave a viability, T/C [3] of 79.2%, a viability, T/C [17] of 48.2% and a viability, T/C [4] of 33.7%. The viability, T/C [18] was 18.4%, the viability, T/C [19] was 21.3% and the viability, T/C [20] was 32.4%. It also gave a viability, T/C [5] of 72.4%, a viability, T/C [21] of 56.4% and a viability, T/C [6] of 40.7%. For the same compound, the viability, T/C [22] was 47.4%, the viability, T/C [23] was 35% and the viability, T/C [24] was 43.5%. It also gave a viability, T/C [7] of 63%, a viability, T/C [25] of 72.2% and a viability, T/C [8] of 43.9%. It also gave a viability, T/C [26] of 60.5%, a viability, T/C [27] of 73.5% and a viability, T/C [28] of 47.7%. It also gave a viability, T/C [9] of 68.7%, a viability, T/C [29] of 72.8% and a viability, T/C [10] of 62.6%. It also gave a viability, T/C [30] of 66%, a viability, T/C [31] of 50.9% and a viability, T/C [32] of 45.2%. It also gave a viability, T/C [11] of 62.4%, a viability, T/C [33] of 49.4% and a viability, T/C [12] of 60%. For the same compound, the viability, T/C [34] was 69.7%, the viability, T/C [35] was 57% and the viability, T/C [36] was 60.2%.

`O=c1[nH]cc(F)c(=O)[nH]1` + Cc1[nH]c2ccc(F)cc2c1-c1nc2c3cccnc3c3ncccc3c2[nH]1 was tested, and the IC50 (second compound 0.0316 µM) was > 10 µM, the IC50 (second compound 0.1 µM) was > 10 µM and the IC50 (second compound 0.316 µM) was > 10 µM. The IC50 (second compound 1 µM) was > 10 µM, the IC50 (second compound 3.16 µM) was > 10 µM and the IC50 (second compound 10 µM) was > 10 µM. It also gave a viability, T/C [1] of 95.6%, a viability, T/C [13] of 88.1% and a viability, T/C [2] of 109%. It also gave a viability, T/C [14] of 91.7%, a viability, T/C [15] of 80.3% and a viability, T/C [16] of 89.5%. The viability, T/C [3] was 87.4%, the viability, T/C [17] was 87.7% and the viability, T/C [4] was 84.6%. For the same compound, the viability, T/C [18] was 83.5%, the viability, T/C [19] was 98.3% and the viability, T/C [20] was 101%. For the same compound, the viability, T/C [5] was 94.2%, the viability, T/C [21] was 76.8% and the viability, T/C [6] was 78.5%. For the same compound, the viability, T/C [22] was 107%, the viability, T/C [23] was 114% and the viability, T/C [24] was 109%. For the same compound, the viability, T/C [7] was 79.2%, the viability, T/C [25] was 94% and the viability, T/C [8] was 85.4%. For the same compound, the viability, T/C [26] was 87.2%, the viability, T/C [27] was 108% and the viability, T/C [28] was 86.7%. For the same compound, the viability, T/C [9] was 87.2%, the viability, T/C [29] was 83% and the viability, T/C [10] was 94.1%. It also gave a viability, T/C [30] of 95.8%, a viability, T/C [31] of 94% and a viability, T/C [32] of 76.1%. For the same compound, the viability, T/C [11] was 70.2%, the viability, T/C [33] was 76.2% and the viability, T/C [12] was 88.6%. The viability, T/C [34] was 57%, the viability, T/C [35] was 61.4% and the viability, T/C [36] was 61.4%.
